Measured values from US20240360109A1 (SHANGHAI HANSOH BIOMEDICAL CO., LTD., priority 2021, published 2024).

Experiments:
[1] = target: T1, human GLP-1 receptor (Homo sapiens, UniProt P43220); test: Stimulation of human GLP1 receptor stable transgenic cell line CHO-K1/GLP-1R/CRE-luc to produce cAMP (HTRF); type: cell-based; conditions: cAMP production, CHO-K1/GLP-1R/CRE-luc cells, 30 minutes incubation, 0.5 mM IBMX
T1 construct: expressed in transfected cells
Text: I. Determination of the Ability of the Compound of the Present Invention to Stimulate Human GLP1 Receptor Stable Transgenic Cell Lines to Produce cAMP
The purpose of this test example is to determine the ability of the compound to activate the human GLP-1 receptor on the cell surface. The EC50 that stimulates […] after agonism characterizes the compound's ability to activate the human GLP-1 receptor.
The frozen human GLP1 receptor stable transgenic cell line CHO-K1/GLP-1R/CRE-luc was taken from the liquid nitrogen tank, quickly thawed in a 37° C. water bath, resuspended with DMEM/F12 medium, centrifuged, and washed once. The cells were resuspended with the experimental buffer, namely DMEM/F12 medium containing 0.1% casein, and the experimental buffer was used to adjust the cell density. The cells were spread on spread on a 384-well plate at a density of 2500 cells/5 μL/well, and then to each well was added 2.5 μL of buffer-prepared IBMX working solution with a final concentration of IBMX of 0.5 mM, and 2.5 μL of the compound sample with gradient dilution (starting at 1000 nM, 3-fold dilution, 11 concentrations). The plate was centrifuged at 1000 rpm for 1 minute, shaken for 30 seconds to mix well, and incubated at room temperature for 30 minutes. Detection was performed using the Cisbio cAMP—Gs Dynamic kit. cAMP-d2 and Anti-cAMP-Eu^3+-Cryptate were diluted 20-fold with cAMP Lysis & Detection Buffer, respectively, and mixed well. To each well was added 5 μL diluted cAMP-d2 solution, and then added 5 μL diluted Anti-cAMP-Eu3^+-Cryptate solution. The plate was shaken for 30 seconds, and incubated at room temperature for 1 hour in the dark. The signal reading of HTRF was performed using the Biotek Synergy H1 microplate reader with an excitation wavelength of 320 nm and emission wavelengths of 620 nm and 665 nm.
The signal ratio (665 nm/620 nm*10,000) was calculated, and the signal ratio and sample concentration were nonlinearly fitted using a four-parameter equation in GraphPad Prism 6 to obtain the EC50 value.

[2] = Pharmacokinetic assay of SD rats; type: in vivo; conditions: Sprague-Dawley, rat, po; male SD rats, plasma, dose 50 mg/kg (b1219 prints 5 mg/kg)
Protocol: SD rats were used as test animals. The pharmacokinetic behavior of the following example compounds was studied in the plasma of rats administered orally at a dose of 50 mg/kg.
Vehicle formula: 0.5% CMC-Na (1% Tween 80);
Three SD rats per group, male. […]
Before and after administration, 0.2 mL of blood was collected from the jugular vein at 0, 0.25, 0.5, 1, 2, 4, 6, 8 and 24 hours, placed in EDTA-K2 tubes, centrifuged at 6000 rpm at 4° C. for 6 min to separate the plasma. The plasma samples were stored at −80° C. The […] was fed 4 hours after the administration.
• 1) 160 μL of acetonitrile was added to 40 μL of the plasma sample for precipitation, and then the mixture was centrifuged at 3500×g for 5-20 min. • 2) After the above process, 100 μL of the supernatant was taken to analyze the concentration of the test compound by LC/MS/MS.
• Liquid chromatography condition: Shimadzu LC-20AD pump Mass spectrometry condition: AB Sciex API 4000 mass spectrometer Chromatographic column: phenomenex Gemiu 5 μm C18 50×4.6 mm • Mobile phase: Eluent A was 0.1% formic acid in water, and Eluent B was methanol • Flow rate: 1.0 mL/min • Elution time: 0-4.0 minutes, the eluent is as follows:
The main pharmacokinetic parameters were calculated using WinNonlin 8.2.

[3] = system: GLP-1R humanized C57BL/6 mice fed with high-fat diet; test: Long-term administration: body weight and ingestion of GLP-1R humanized mice fed with high-fat diet; type: in vivo; conditions: HFD mice; for Weight (g)-D0 Mean: Day 0 (day of first administration, baseline), 10 mg/kg oral once a day; for Body weight change(%)-D10 Mean: Day 10 versus Day 0, 10 mg/kg oral once a day
Text: The purpose of this test is to evaluate the effects of long-term administration of the compound on the body weight and ingestion of GLP-1R humanized C57BL/6 mice fed with high-fat diet.
C57BL/6_hGLP-1R, male, 5-8 weeks; 60% high-fat diet (HFD); Ultra-clean workbench; Electronic balance.
3.1 On the day of feeding with high-fat diet, C57BL/6 mice were randomly divided into two groups according to their weight. The first group was Blank, with 7 mice fed with normal control diet, while the remaining animals were in the modeling group, fed with high-fat diet, and continued until the end of the experiment.
3.2 At the 8th week of HFD feeding, the modeling group animals were randomly divided with 7 animals per group according to their weight. The first group was the Vehicle group (Vehicle: 0.5% CMC Na+1% Tween 80), which was given vehicle; The remaining group was the administration group; Administration regimen: Oral administration of the corresponding compound, administration cycle was 14 days, once a day for 14 days, with an administration dose of 10 mg/kg and an administration volume of 10 mL/kg. The Blank group continued to be fed with normal diet without any administration operation.
3.3 The day of administration was defined as Day 0.
3.4 During each administration, animals were weighed and data was recorded. Oral administration is performed according to body weight, with an administration volume of 10 mL/kg.
3.5 Starting from Day 0 of the experiment, the food intake of each group of mice was measured once every three days. Specifically, the feed was changed after each weighing and administration, and the added and remaining amounts were recorded.
3.6 On the end day of Day 14, all mice were euthanized sequentially according to grouping order, and the livers were dissected and weighed.
The weight and weight change rate of mice after administration were summarize and statistically analyzed. Weight change rate calculation: (BWt−BW0)/BW0×100%. BWt represents the weight of the mice on Day t of the experiment, and BW0 represents the weight of the mice on Day 0 of the experiment.
Calculation of food intake: (added amount (g)−remaining amount (g))/number of animals per cage, cumulative food intake is the sum of daily food intake of each animal during the administration period.
Experimental data were analyzed using GraphPad Prism software. The t-test method was used for comparison between the two groups. The one-way ANOVA method was used for comparisons between three or more groups.

T1 sequence (P43220 24-463): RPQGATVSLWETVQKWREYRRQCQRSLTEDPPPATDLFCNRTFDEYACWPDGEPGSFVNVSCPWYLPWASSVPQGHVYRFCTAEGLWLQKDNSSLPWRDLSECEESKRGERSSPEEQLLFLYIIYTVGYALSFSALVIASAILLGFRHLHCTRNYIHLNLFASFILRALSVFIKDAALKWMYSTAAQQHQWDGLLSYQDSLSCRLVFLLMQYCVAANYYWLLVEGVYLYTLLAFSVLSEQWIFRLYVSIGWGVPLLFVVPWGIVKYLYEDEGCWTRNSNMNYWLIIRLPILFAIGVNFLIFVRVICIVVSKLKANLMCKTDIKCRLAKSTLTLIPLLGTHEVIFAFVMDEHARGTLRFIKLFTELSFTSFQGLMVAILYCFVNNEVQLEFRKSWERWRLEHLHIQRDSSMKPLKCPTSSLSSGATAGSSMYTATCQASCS

| Compound | EC50 [1] | AUC(0-inf) [2] | AUC(0-t) [2] | Cmax [2] | Tmax [2] | half-life [2] | also measured |
| --- | --- | --- | --- | --- | --- | --- | --- |
| O=C(O)c1ccc2nc(CN3CCC(c4cccc5c4OC(c4ccc(Cl)cc4F)C=C5F)CC3)n(C[C@@H]3CCO3)c2c1 (stereo partly drawn) [Example 1, 2-((4-(2-(4-Chloro-2-fluorophenyl)-4-fluoro-2H-chromen-8-yl)piperidin-1-yl)methyl)-1-(((S)-oxetan-2-yl)methyl)-1H-benzo[d]imidazole-6-carboxylic acid] | 130 pM |  |  |  |  |  |  |
| O=C(O)c1ccc2nc(CN3CCC(c4cccc5c4O[C@@H](c4ccc(Cl)cc4F)C=C5F)CC3)n(C[C@@H]3CCO3)c2n1 [Example 2-A, 2-((4-((R)-2-(4-chloro-2-fluorophenyl)-4-fluoro-2H-chroman-8-yl)piperidin-1-yl)methyl)-3-(((S)-oxetan-2-yl)methyl)-3H-imidazolo[4,5-b]pyridine-5-carboxylic acid] | 70 pM | 35800 ng·h/mL | 35800 ng·h/mL | 7160 ng/mL | 2 h | 3.1 h |  |
| O=C(O)c1ccc2nc(CN3CCC(c4cccc5c4OC(c4ccc(Cl)cc4F)C=C5F)CC3)n(CC3(CF)CC3)c2c1 (stereo not drawn) [Example 3, 2-((4-(2-(4-Chloro-2-fluorophenyl)-4-fluoro-2H-chromen-8-yl)piperidin-1-yl)methyl)-1-((1-(fluoromethyl)cyclopropyl)methyl)-1H-benzo[d]imidazole-6-carboxylic acid] | 60 pM |  |  |  |  |  |  |
| [2H]C([2H])([2H])Oc1cc(Cl)ccc1[C@H]1C=C(F)c2cccc(C3CCN(Cc4nc5ccc(C(=O)O)nc5n4C[C@@H]4CCO4)CC3)c2O1 [Example 23-A, 2-((4-((R)-2-(4-chloro-2-(methoxy-d3)phenyl)-4-fluoro-2H-chromen-8-yl)piperidin-1-yl)methyl)-3-(((S)-oxetan-2-yl)methyl)-3H-imidazolo[4,5-b]pyridine-5-carboxylic acid] | 70 pM |  |  |  |  |  |  |
| [2H]C([2H])([2H])Oc1cc(Cl)ccc1[C@H]1C=C(F)c2cccc(C3CCN(Cc4nc5ccc(C(=O)O)cc5n4C[C@@H]4CCO4)CC3)c2O1 [Example 24-A, 2-((4-((R)-2-(4-chloro-2-(methoxy-d3)phenyl)-4-fluoro-2H-chromen-8-yl)piperidin-1-yl)methyl)-1-(((S)-oxetan-2-yl)methyl)-1H-benzo[d]imidazole-6-carboxylic acid] | 50 pM |  |  |  |  |  |  |
| [2H][C@]1(c2ccc(Cl)cc2F)C=C(F)c2cccc(C3CCN(Cc4nc5ccc(C(=O)O)nc5n4C[C@@H]4CCO4)CC3)c2O1 [Example 40, 2-((4-((R)-2-(4-Chloro-2-fluorophenyl)-4-fluoro-2H-chromen-8-yl-2-d)piperidin-1-yl)methyl)-3-(((S)-oxetan-2-yl)methyl)-3H-imidazolo[4,5-b]pyridine-5-carboxylic acid] | 100 pM | 10800 ng·h/mL | 10300 ng·h/mL | 2300 ng/mL | 1 h | 2 h | Weight (g)-D0 Mean ([3]; the 3rd table): 28.40 g; Weight (g)-D10 Mean ([3]; Day 10, 10 mg/kg oral once a day, the 3rd table): 26.01 g; Body weight change(%)-D10 Mean ([3]; the 3rd table): −8.49% |
| [2H][C@]1(c2ccc(Cl)cc2F)C=Cc2cccc(C3CCN(Cc4nc5ccc(C(=O)O)cc5n4C[C@@H]4CCO4)CC3)c2O1 [Example 47] | 80 pM |  |  |  |  |  |  |
| [2H]C([2H])([2H])Oc1cc(Cl)ccc1[C@@]1([2H])C=C(F)c2cccc(C3CCN(Cc4nc5ccc(C(=O)O)cc5n4C[C@@H]4CCO4)CC3)c2O1 [Example 49, 2-((4-((R)-2-(4-Chloro-2-(methoxy-d3)phenyl)-4-fluoro-2H-chromen-8-yl-2-d)piperidin-1-yl)methyl)-1-(((S)-oxetan-2-yl)methyl)-1H-benzo[d]imidazole-6-carboxylic acid] | 80 pM |  |  |  |  |  |  |
| N#Cc1ccc([C@H]2C=Cc3cccc(C4CCN(Cc5nc6ccc(C(=O)O)cc6n5C[C@@H]5CCO5)CC4)c3O2)c(F)c1 [Example 52, 2-((4-((R)-2-(4-Cyano-2-fluorophenyl)-2H-chromen-8-yl)piperidin-1-yl)methyl)-1-(((S)-oxetan-2-yl)methyl)-1H-benzo[d]imidazole-6-carboxylic acid] | 50 pM | 12600 ng·h/mL | 12600 ng·h/mL | 9400 ng/mL | 1 h | 1.6 h |  |
| O=C(O)c1ccc2nc(CN3CCC(c4cccc5c4O[C@@H](c4ccc(Cl)cc4F)C=C5)CC3)n(C[C@@H]3CCO3)c2c1 [Example 53] | 60 pM | 21600 ng·h/mL | 21500 ng·h/mL | 7980 ng/mL | 0.5 h | 2 h | Weight (g)-D0 Mean ([3]; the 4th table): 28.34 g; Eeight (g)-D10 Mean ([3]; Day 10, 10 mg/kg oral once a day, the 4th table): 25.65 g; Body weight change(%)-D10 Mean ([3]; the 4th table): −9.53% |
